Measured values from publication PMC11822212, “High-throughput screening identifies Aurora kinase B as a critical therapeutic target for Merkel cell carcinoma” (Nature Communications, 2025).
Where two headings read alike, the source gives them in different places.

Key:
MCC13 cells (VN-MCC) = test: qHTS cell viability (CellTiter-Glo, 72 h; primary and follow-up small molecule screen); format: cell-based, human
MCC26 cells (VN-MCC) = test: as above; format: cell-based, human
UISO cells (VN-MCC) = test: as above; format: cell-based, human
WAGA cells (VP-MCC) = test: as above; format: cell-based, human
MKL-1 cells (VP-MCC) = test: as above; format: cell-based, human
MKL-2 cells (VP-MCC) = test: as above; format: cell-based, human
HACAT cells = test: qHTS cell viability (CellTiter-Glo, 72 h; primary screen), control cell line; format: cell-based, human
HEK293T cells = test: as above; format: cell-based, human
NIH-3T3 cells = test: as above; format: cell-based, mouse
CRL-7250 cells = test: as above; format: cell-based
[1] = test system: MCC cell lines (WAGA, MKL-1, MKL-2, MCC13, MCC26, UISO); test: qHTS cell viability, all six MCC cell lines as a group (mean AUC, MCC.avg); format: cell-based, human
[2] = test system: VP-MCC cell lines (WAGA, MKL-1, MKL-2); test: qHTS cell viability, VP-MCC cell lines as a group (mean AUC, VP.MCC.avg); format: cell-based, human
[3] = test system: VN-MCC cell lines (MCC13, MCC26, UISO); test: qHTS cell viability, VN-MCC cell lines as a group (mean AUC, VN.MCC.avg); format: cell-based, human
[4] = test system: control cell lines (HACAT, HEK293T, CRL-7250, NIH-3T3); test: qHTS cell viability, control cell lines as a group (mean AUC, Control.avg); format: cell-based
[5] = test system: six MCC cell lines and four control cell lines; test: qHTS cell viability, all 10 cell lines screened; format: cell-based
[6] = MIPE library, 11-point DRC, sheet S2E
[7] = MIPE library, 11-point DRC, control cell line, sheet S2E
[8] = MIPE library, mean AUC of six MCC cell lines, sheet S2E
[9] = MIPE library, Control AUC minus VP-MCC AUC (therapeutic window), sheet S2E
[10] = MIPE library, mean AUC of VP-MCC cell lines, sheet S2E
[11] = MIPE library, Control AUC minus VN-MCC AUC (therapeutic window), sheet S2E
[12] = MIPE library, mean AUC of VN-MCC cell lines, sheet S2E
[13] = MIPE library, mean AUC of control cell lines, sheet S2E
[14] = MIPE library, Control AUC minus MCC AUC (therapeutic window), sheet S2E

Question: With CCCCCCCCCCCCCCCC[N+](C)(C)CC [Ethylhexadecyldimethylammonium bromide] as the molecule, how does the MCC13_AUC (MCC13 cells (VN-MCC); NPC library, qHTS dose-response AUC, MCC13) read?
Answer: 452.398

Question: And the “Area under the dose-response curve (AUC) MCC13 Replicate 1” value (MCC13 cells (VN-MCC); follow-up screen, MCC13, replicate 1)?
Answer: 444.8

Question: And the “Area under the dose-response curve (AUC) MCC13 Replicate 2” value (MCC13 cells (VN-MCC); follow-up screen, MCC13, replicate 2)?
Answer: 473.1

Question: What about the “Area under the dose-response curve (AUC) MCC13 Replicate 3” value (MCC13 cells (VN-MCC); follow-up screen, MCC13, replicate 3) of the same molecule?
Answer: 416.6

Question: And the MCC26_AUC (MCC26 cells (VN-MCC); NPC library, qHTS dose-response AUC, MCC26)?
Answer: 497.964

Question: What about the “Area under the dose-response curve (AUC) MCC26 Replicate 1” value (MCC26 cells (VN-MCC); follow-up screen, MCC26, replicate 1) of the same molecule?
Answer: 420.1

Question: And the “Area under the dose-response curve (AUC) MCC26 Replicate 2” value (MCC26 cells (VN-MCC); follow-up screen, MCC26, replicate 2)?
Answer: 377.6

Question: And the “Area under the dose-response curve (AUC) MCC26 Replicate 3” value (MCC26 cells (VN-MCC); follow-up screen, MCC26, replicate 3)?
Answer: 430.8

Question: And the UISO_AUC (UISO cells (VN-MCC); NPC library, qHTS dose-response AUC, UISO)?
Answer: 345.634

Question: And the “Area under the dose-response curve (AUC) UISO Replicate 1” value (UISO cells (VN-MCC); follow-up screen, UISO, replicate 1)?
Answer: 324.1

Question: What about the “Area under the dose-response curve (AUC) UISO Replicate 2” value (UISO cells (VN-MCC); follow-up screen, UISO, replicate 2) of the same molecule?
Answer: 364.3

Question: And the “Area under the dose-response curve (AUC) UISO Replicate 3” value (UISO cells (VN-MCC); follow-up screen, UISO, replicate 3)?
Answer: 313.9

Question: And the WAGA_AUC (WAGA cells (VP-MCC); NPC library, qHTS dose-response AUC, WAGA)?
Answer: 248.495

Question: And the “Area under the dose-response curve (AUC) WAGA Replicate 1” value (WAGA cells (VP-MCC); follow-up screen, WAGA, replicate 1)?
Answer: 383.4

Question: What about the “Area under the dose-response curve (AUC) WAGA Replicate 2” value (WAGA cells (VP-MCC); follow-up screen, WAGA, replicate 2) of the same molecule?
Answer: 363.0

Question: And the “Area under the dose-response curve (AUC) WAGA Replicate 3” value (WAGA cells (VP-MCC); follow-up screen, WAGA, replicate 3)?
Answer: 382.5

Question: And the MKL1_AUC (MKL-1 cells (VP-MCC); NPC library, qHTS dose-response AUC, MKL1)?
Answer: 275.727

Question: And the “Area under the dose-response curve (AUC) MKL-1 Replicate 1” value (MKL-1 cells (VP-MCC); follow-up screen, MKL-1, replicate 1)?
Answer: 317.9

Question: And the “Area under the dose-response curve (AUC) MKL-1 Replicate 2” value (MKL-1 cells (VP-MCC); follow-up screen, MKL-1, replicate 2)?
Answer: 305.9

Question: And the “Area under the dose-response curve (AUC) MKL-1 Replicate 3” value (MKL-1 cells (VP-MCC); follow-up screen, MKL-1, replicate 3)?
Answer: 330.7

Question: What about the MKL2_AUC (MKL-2 cells (VP-MCC); NPC library, qHTS dose-response AUC, MKL2) of the same molecule?
Answer: 235.245

Question: What about the “Area under the dose-response curve (AUC) MKL-2 Replicate 1” value (MKL-2 cells (VP-MCC); follow-up screen, MKL-2, replicate 1) of the same molecule?
Answer: 333.8

Question: What about the “Area under the dose-response curve (AUC) MKL-2 Replicate 2” value (MKL-2 cells (VP-MCC); follow-up screen, MKL-2, replicate 2) of the same molecule?
Answer: 320.4

Question: And the “Area under the dose-response curve (AUC) MKL-2 Replicate 3” value (MKL-2 cells (VP-MCC); follow-up screen, MKL-2, replicate 3)?
Answer: 334.2

Question: And the HACAT_AUC (HACAT cells; NPC library, qHTS dose-response AUC, HACAT control)?
Answer: 288.244

Question: And the HEK293T_AUC (HEK293T cells; NPC library, qHTS dose-response AUC, HEK293T control)?
Answer: 340.309

Question: And the NIH3T3_AUC (NIH-3T3 cells; NPC library, qHTS dose-response AUC, NIH3T3 control)?
Answer: 447.34

Question: And the CRL7250_AUC (CRL-7250 cells; NPC library, qHTS dose-response AUC, CRL7250 control)?
Answer: 362.003

Question: What about the MCC_Avg_AUC ([1]; NPC library, mean AUC of six MCC cell lines) of the same molecule?
Answer: 342.577

Question: What about the VP-MCC_Avg_AUC ([2]; NPC library, mean AUC of VP-MCC cell lines) of the same molecule?
Answer: 253.156

Question: And the Control-VP-MCC ([2]; NPC library, therapeutic window: Control avg AUC minus VP-MCC avg AUC)?
Answer: 106.318

Question: What about the VN-MCC_Avg_AUC ([3]; NPC library, mean AUC of VN-MCC cell lines) of the same molecule?
Answer: 431.999

Question: And the Control-VN-MCC ([3]; NPC library, therapeutic window: Control avg AUC minus VN-MCC avg AUC)?
Answer: -72.525

Question: And the Control_Avg_AUC ([4]; NPC library, mean AUC of control cell lines)?
Answer: 359.474

Question: And the Control-MCC ([5]; NPC library, therapeutic window: Control avg AUC minus MCC avg AUC)?
Answer: 16.8967

Question: With Cc1[nH]c(/C=C2\C(=O)Nc3ccccc32)c(C)c1CCC(=O)O [Orantinib] as the molecule, how does the MCC13_AUC (MCC13 cells (VN-MCC); [6]) read?
Answer: 429.293

Question: And the MCC26_AUC (MCC26 cells (VN-MCC); [6])?
Answer: 450.485

Question: And the UISO_AUC (UISO cells (VN-MCC); [6])?
Answer: 326.059

Question: And the WAGA_AUC (WAGA cells (VP-MCC); [6])?
Answer: 255.586

Question: And the MKL1_AUC (MKL-1 cells (VP-MCC); [6])?
Answer: 273.854

Question: And the MKL2_AUC (MKL-2 cells (VP-MCC); [6])?
Answer: 325.675

Question: And the HACAT_AUC (HACAT cells; [7])?
Answer: 472.413

Question: What about the HEK293T_AUC (HEK293T cells; [7]) of the same molecule?
Answer: 367.406

Question: What about the NIH3T3_AUC (NIH-3T3 cells; [7]) of the same molecule?
Answer: 371.272

Question: What about the CRL7250_AUC (CRL-7250 cells; [7]) of the same molecule?
Answer: 403.945

Question: And the MCC_Avg_AUC [1, 8]?
Answer: 343.492

Question: What about the Control-VP-MCC [2, 9] of the same molecule?
Answer: 118.721

Question: And the VP-MCC_Avg_AUC [2, 10]?
Answer: 285.038

Question: And the Control-VN-MCC [3, 11]?
Answer: 1.813

Question: And the VN-MCC_Avg_AUC [3, 12]?
Answer: 401.946

Question: What about the Control_Avg_AUC [4, 13] of the same molecule?
Answer: 403.759

Question: And the Control-MCC [5, 14]?
Answer: 60.2668

Question: For CCC(=O)O[C@@H]1C=C2CCC3C(CCC4(C)C3CC[C@@H]4OC(=O)CC)C2CC1 (some centres unmarked) [Bolandiol dipropionate], which MCC13_AUC (MCC13 cells (VN-MCC)) is on record?
Answer: 478.899

Question: What about the MCC26_AUC (MCC26 cells (VN-MCC)) of the same molecule?
Answer: 482.222

Question: What about the UISO_AUC (UISO cells (VN-MCC)) of the same molecule?
Answer: 526.911

Question: What about the WAGA_AUC (WAGA cells (VP-MCC)) of the same molecule?
Answer: 383.532

Question: And the MKL1_AUC (MKL-1 cells (VP-MCC))?
Answer: 411.821

Question: What about the MKL2_AUC (MKL-2 cells (VP-MCC)) of the same molecule?
Answer: 411.71

Question: What about the HACAT_AUC (HACAT cells) of the same molecule?
Answer: 443.174

Question: What about the HEK293T_AUC (HEK293T cells) of the same molecule?
Answer: 471.071

Question: And the NIH3T3_AUC (NIH-3T3 cells)?
Answer: 491.81

Question: What about the CRL7250_AUC (CRL-7250 cells) of the same molecule?
Answer: 480.859

Question: And the MCC_Avg_AUC [1]?
Answer: 449.182

Question: What about the Control-VP-MCC [2] of the same molecule?
Answer: 69.3739

Question: And the VP-MCC_Avg_AUC [2]?
Answer: 402.354

Question: What about the Control-VN-MCC [3] of the same molecule?
Answer: -24.2823

Question: And the VN-MCC_Avg_AUC [3]?
Answer: 496.011

Question: And the Control_Avg_AUC [4]?
Answer: 471.728

Question: What about the Control-MCC [5] of the same molecule?
Answer: 22.5458

Question: How did the MCC13_AUC (MCC13 cells (VN-MCC); [6]) turn out when O=C(CCCCCCC(=O)Nc1cccnc1)NO [Pyroxamide] was run?
Answer: 454.868

Question: And the MCC26_AUC (MCC26 cells (VN-MCC); [6])?
Answer: 466.672

Question: And the UISO_AUC (UISO cells (VN-MCC); [6])?
Answer: 440.831

Question: What about the WAGA_AUC (WAGA cells (VP-MCC); [6]) of the same molecule?
Answer: 346.535

Question: And the MKL1_AUC (MKL-1 cells (VP-MCC); [6])?
Answer: 400.642

Question: And the MKL2_AUC (MKL-2 cells (VP-MCC); [6])?
Answer: 371.322

Question: What about the HACAT_AUC (HACAT cells; [7]) of the same molecule?
Answer: 452.893

Question: What about the HEK293T_AUC (HEK293T cells; [7]) of the same molecule?
Answer: 439.975

Question: What about the NIH3T3_AUC (NIH-3T3 cells; [7]) of the same molecule?
Answer: 462.753

Question: What about the CRL7250_AUC (CRL-7250 cells; [7]) of the same molecule?
Answer: 459.817

Question: And the MCC_Avg_AUC [1, 8]?
Answer: 413.478

Question: And the Control-VP-MCC [2, 9]?
Answer: 81.0267

Question: And the VP-MCC_Avg_AUC [2, 10]?
Answer: 372.833

Question: And the Control-VN-MCC [3, 11]?
Answer: -0.2641

Question: What about the VN-MCC_Avg_AUC [3, 12] of the same molecule?
Answer: 454.124

Question: And the Control_Avg_AUC [4, 13]?
Answer: 453.86

Question: And the Control-MCC [5, 14]?
Answer: 40.3813
